Test results published in patent publication US6368788B1 (priority 1987, dated 2002).
Marks after values point to notes of the source that are not given here.

Legend:
[1] = Pleuritis / suppurative lung diseases, combined antibiotic therapy (Protocol K); format: in vivo, human
Description: Efficacy of L-Glu-L-Trp in combined antibiotic therapy was evaluated in twelve male patients (aged 18 to 45) with suppurative lung diseases that were poorly responsive to antibiotic therapy and accompanied by diffuse pleuritis, disseminated intravascular coagulation (DIC), pleural effusions, and fever. […] L-Glu-L-Trp was administered to these patients as a treatment of nearly last resort, and as part of the ongoing (unsuccessful) regimen of broad spectrum antibiotic therapy: i.e., 200 μg of L-Glu-L-Trp was administered im daily over a period of 5-7 days. […] In addition, T-cell counts in peripheral blood increased and IgG, IgM, and IgA increased (TABLE 17) and C-reactive protein levels fell (TABLE 16).

[2] = test system: upper respiratory infections; test: Prophylaxis of respiratory infections in polar explorers; format: in vivo, human; conditions: intranasal 1 μg/kg, 3 days
[3] = test system: Mycobacterium tuberculosis; parameters: species or system human; conditions: in vivo
[4] = Pelvic inflammatory diseases; format: in vivo, human
Description: Ninety-six female patients (96) were entered into a trial having a variety of different disorders, i.e., pelvic inflammatory diseases, cervicitis, vaginitis and various tubo-ovarian and adnexal abscesses. Forty-six patients (46) comprised the L-Glu-L-Trp treatment group, and 50 patients comprised a conventional treatment control group. L-Glu-L-Trp was administered daily im at a dose of 100 μg, or 1 μg/kg intranasally, on each of 5 consecutive days. Alternatively, 50 μg of L-Glu-L-Trp was injected intralymphatically on each of 5 consecutive days in conjunction with conventional therapy. […] Normalization of immune parameters was correlated with the observed clinical improvements.
Patients entered into Group 1 (aged 19-50) were separable into clinical subgroups as follows: Subgroup 1A, consisted of 18 patients having […] (body temperature 38-39° C.), and suppurative vaginal discharge after infected abortions performed outside hospitals (average age 24.4±4.2 years); Subgroup 1B, consisted of 16 patients with abdominal pains resulting from chronic nonspecific subfebrile (<38° C.) inflammatory disease of the fallopian tubes (average age 32.2±3.9 years; range of abortions in the patient population 2-8); and, Subgroup 1C consisted of 12 patients with inflammation of the fallopian tubes, (38% resulting from placement of an IUD in the uterus more than 4 years previously). […] Group 2 (control) was constituted of 50 patients (aged 18-44) presenting with analogous symptoms and diseases and the patients in this group were treated with traditional antibiotic therapy.
In all cases L-Glu-L-Trp was delivered im at a dose of 100 μg in 1 ml volume daily on each of five days.
Treatment A: Administered to patients in Group 1A: The course of L-Glu-L-Trp therapy was administered, remnants of fetal tissue were surgically removed, and an additional course of L-Glu-L-Trp therapy was administered.
Treatment B: Administered to patients in Group 1B: L-Glu-L-Trp therapy was administered immediately upon admission into the protocol.
Treatment C: Administered to patients in Group 1C: Infected uterine tissues were surgically removed, abdominal drainage was established, and L-Glu-L-Trp therapy was administered starting 2 days post-operatively.
Patients were evaluated by monitoring the following parameters before, during, and 5-7 days after therapy: i) clinical status of the patient (i.e., body temperature, abdominal pain, and physical examinations) and, ii) laboratory data (i.e., urinalysis, blood chemistry, and blood immunology). The following clinical chemistry values of the patients in Groups 1A, 1B, and 1C were all within the normal range before and after treatment: AST, ALT, creatinine, urea, glucose, protein, chloride, potassium, and sodium. […] Treatment with L-Glu-L-Trp reduced the latter serum markers, i.e., alkaline phosphatase fell to 62.71±5.67 ED/mL and bilirubin to 0.50±0.03 mg %.

Wound healing = test: Wound healing; parameters: species or system human; conditions: in vivo
Description: L-Glu-L-Trp was administered to 37 patients with wounds of various origins, types and localizations. Patients in the control group (24) received conventional treatments. L-Glu-L-Trp was administered daily im (or topically) on each of 10 consecutive days. The im dose was 100 μg.

cAMP and cGMP = test: Splenic lymphocyte cAMP and cGMP, normal, sensitized and anaphylactic animals; format: in vivo, guinea pigs; conditions: for cAMP / cAMP/cGMP / cGMP: splenic lymphocytes, 10 μg/kg
Description: Normal guinea pigs (10/group) were treated with 10 μg/kg L-Glu-L-Trp daily on each of five consecutive days and then spleens were removed, lymphocytes isolated, and cyclic AMP and GMP levels determined. To evaluate the effects of L-Glu-L-Trp on immune cells in the face of an ongoing anaphylactic response, splenic lymphocytes were isolated from guinea pigs sensitized for anaphylaxis, or following induction of anaphylactic shock.

[5] = pooled Groups 1A-1C, After L-Glu-L-Trp Therapy
[6] = sensitized + anaphylaxis (Group 5)
[7] = sensitized guinea pigs (Group 3)

Question: Which Clinical outcome ([1]; 200 μg im daily 5-7 days) does the source give for L-Glu-L-Trp here?
Answer: A dramatic change in the clinical picture was observed in all 12 patients

Question: What about the ATIII ([1]; After L-Glu-L-Trp Therapy) of the same substance?
Answer: 98.3 ± 15.3 % of normal

Question: What about the “Clotting time (citrated whole blood-recalcified)” value ([1]; After L-Glu-L-Trp Therapy) of the same substance?
Answer: 146.5 ± 28.2

Question: What about the FDP ([1]; After L-Glu-L-Trp Therapy) of the same substance?
Answer: 21.7 ± 0.8 µg/mL

Question: What about the “Fibrinogen Concentration” value ([1]; After L-Glu-L-Trp Therapy) of the same substance?
Answer: 4.7 ± 1.2 g/L

Question: What about the “Fibrinolytic Activity” value ([1]; After L-Glu-L-Trp Therapy) of the same substance?
Answer: 181.2 ± 52.2 min

Question: What about the Kaolin-Cephalin clotting time ([1]; After L-Glu-L-Trp Therapy) of the same substance?
Answer: 61.7 ± 6.1

Question: And the Clinical outcome [2]?
Answer: prevented the occurrence of upper respiratory infections

Question: What about the “Clinical outcome at 2 months” value [3] of the same substance?
Answer: disappearance of toxic symptoms, a resorption of pulmonary infiltrates, and a resolution of pulmonary cavities

Question: And the “Considerable Improvement, % of patients” value [3]?
Answer: 24%

Question: What about the “Considerable Improvement, No. of patients” value [3] of the same substance?
Answer: 9

Question: And the “Improvement, % of patients” value [3]?
Answer: 73%

Question: What about the “Improvement, No. of patients” value [3] of the same substance?
Answer: 27

Question: And the “No Change, % of patients” value [3]?
Answer: 3%

Question: What about the “No Change, No. of patients” value [3] of the same substance?
Answer: 1

Question: And the “Patients with closure of degeneration foci and cavities in the lungs” value [3]?
Answer: 35 of the 37

Question: And the “Patients with “improvement”” value [3]?
Answer: 27

Question: What about the Response rate [3] of the same substance?
Answer: 97%

Question: What about the Alkaline phosphatase ([4]; after treatment) of the same substance?
Answer: 62.71±5.67 ED/mL

Question: And the “B-lymphocytes, % of normal” value ([4]; after treatment)?
Answer: ~55%

Question: What about the Bilirubin ([4]; after treatment) of the same substance?
Answer: 0.50±0.03 mg %

Question: What about the “Lymphocytes, % of normal” value ([4]; after treatment) of the same substance?
Answer: about 81%

Question: And the “T-lymphocytes, % of normal” value ([4]; after treatment)?
Answer: about 75%

Question: And the Clinical outcome ([4]; in vivo)?
Answer: alleviated pain, reduced fever, and decreased the duration of the medical treatment

Question: What about the “B-Lymphocytes: % of Normal Value” [4, 5] of the same substance?
Answer: (55%)

Question: What about the “B-Lymphocytes: % of PBL” value [4, 5] of the same substance?
Answer: 11.09 ± 0.87 % of PBL

Question: What about the “B-Lymphocytes: No.” value [4, 5] of the same substance?
Answer: 0.27 ± 0.03* 10^9/L

Question: What about the “Blastogenic Response: % Lym blast w/Con A” value [4, 5] of the same substance?
Answer: 68.70 ± 5.32%

Question: And the “Blastogenic Response: % Lym blast w/PHA” value [4, 5]?
Answer: 37.22 ± 2.81 %

Question: And the IgA [4, 5]?
Answer: 2.61 ± 0.33 g/L

Question: And the “IgA % Normal Value” [4, 5]?
Answer: (137%)

Question: What about the IgG [4, 5] of the same substance?
Answer: 13.73 ± 0.51 g/L

Question: What about the “IgG % Normal Value” [4, 5] of the same substance?
Answer: (126%)

Question: What about the IgM [4, 5] of the same substance?
Answer: 2.64 ± 0.36 g/L

Question: What about the “IgM % Normal Value” [4, 5] of the same substance?
Answer: (176%)

Question: And the “Lymphocytes: % Normal Value” [4, 5]?
Answer: (81%)

Question: And the “Lymphocytes: % of PBL” value [4, 5]?
Answer: 36.61 ± 1.32 % of PBL

Question: What about the “Lymphocytes: No.” value [4, 5] of the same substance?
Answer: 2.26 ± 0.12* 10^9/L

Question: And the “Phagocytes: % PBL” value [4, 5]?
Answer: 74.78 ± 2.35 % PBL

Question: What about the “T-Lymphocytes: % of Lym” value [4, 5] of the same substance?
Answer: 71.57 ± 1.76 % of Lym

Question: What about the “T-Lymphocytes: % of Normal Value” [4, 5] of the same substance?
Answer: (75%)

Question: What about the “T-Lymphocytes: No.” value [4, 5] of the same substance?
Answer: 1.67 ± 0.09* 10^9/L

Question: What about the Clinical outcome (Wound healing) of the same substance?
Answer: accelerated wound healing

Question: And the “cAMP and cGMP levels” value (cAMP and cGMP; sensitized and anaphylactic animals)?
Answer: significantly elevated the levels of cAMP and cGMP

Question: And the cAMP (cAMP and cGMP; [6])?
Answer: 210 ± 30 pmole/10^7 cells

Question: And the cAMP/cGMP (cAMP and cGMP; [6])?
Answer: 26 ± 3

Question: What about the cGMP (cAMP and cGMP; [6]) of the same substance?
Answer: 7.9 ± 0.5 pmole/10^7 cells

Question: What about the cAMP (cAMP and cGMP; [7]) of the same substance?
Answer: 250 ± 30 pmole/10^7 cells

Question: And the cAMP/cGMP (cAMP and cGMP; [7])?
Answer: 22 ± 2

Question: And the cGMP (cAMP and cGMP; [7])?
Answer: 11.2 ± 0.9 pmole/10^7 cells
